According to PubChem BioAssay (NCI):
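The compound was tested at five concentrations on cells cultured in 96-well plates, with a 48-hour exposure period. GI50 marks 50% less growth. TGI: total growth inhibition.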

Experiments:
Assay in all cases: DTP human tumour cell line panel, 48 h
786-0 renal = test system: 786-0 renal
CAKI-1 renal = test system: CAKI-1 renal
HCT-116 colon = test system: HCT-116 colon
M14 melanoma = test system: M14 melanoma
MOLT-4 leukemia = test system: MOLT-4 leukemia
NCI-H460 lung = test system: NCI-H460 lung
RXF 393 renal = test system: RXF 393 renal
SK-MEL-2 melanoma = test system: SK-MEL-2 melanoma
SN12C renal = test system: SN12C renal
U251 CNS = test system: U251 CNS

Row | Structure (SMILES) | TGI (786-0 renal) | TGI (CAKI-1 renal) | TGI (HCT-116 colon) | TGI (M14 melanoma) | TGI (MOLT-4 leukemia) | TGI (NCI-H460 lung) | TGI (RXF 393 renal) | TGI (SK-MEL-2 melanoma) | TGI (SN12C renal) | TGI (U251 CNS) | GI50 (786-0 renal) | GI50 (CAKI-1 renal) | GI50 (HCT-116 colon) | GI50 (M14 melanoma) | GI50 (MOLT-4 leukemia) | GI50 (NCI-H460 lung) | GI50 (RXF 393 renal) | GI50 (SK-MEL-2 melanoma) | GI50 (SN12C renal) | GI50 (U251 CNS)
1 | Cc1cccc(C)c1N1C(=O)C(=O)C(c2nc3ccccc3s2)/C(=N/NC(=O)NN)C1=O (configuration not stated) | > 100 µM | > 100 µM | > 100 µM | > 100 µM | > 100 µM | > 100 µM | > 100 µM | > 100 µM | > 100 µM | > 100 µM | – | – | – | – | – | – | – | – | – | –
2 | COc1ccc(C(=O)c2nc3ccccc3n2CC(=O)c2ccc(Cl)cc2)cc1 | > 100 µM | > 100 µM | > 100 µM | > 100 µM | > 100 µM | > 100 µM | > 24.6 µM | > 100 µM | > 100 µM | > 100 µM | 3.88 µM | 53.6 µM | 3.15 µM | 2.27 µM | 2.09 µM | 7.34 µM | 2.6 µM | 12.6 µM | 9.72 µM | 3.41 µM
3 | O=C1[C@H]2ON(c3ccccc3)C(c3ccco3)[C@H]2C(=O)N1c1ccc(Cc2ccc(N3C(=O)[C@@H]4ON(c5ccccc5)C(c5ccco5)[C@@H]4C3=O)cc2)cc1 (some centres not stated) | > 100 µM | > 100 µM | – | > 100 µM | > 100 µM | > 100 µM | > 100 µM | > 100 µM | > 100 µM | > 100 µM | – | – | – | – | – | – | – | – | – | –
4 | CC(C)[O-].CC(C)[O-].O=c1cccccc1[O-].O=c1cccccc1[O-].[Ti+4] | 69.9 µM | > 100 µM | > 100 µM | > 100 µM | > 100 µM | – | – | > 100 µM | – | > 100 µM | – | – | – | – | – | – | – | – | – | 28.9 µM
5 | Cc1ccc2oc(=O)c(-c3ccccc3)nc2c1 | > 100 µM | > 100 µM | > 100 µM | > 100 µM | > 100 µM | > 100 µM | – | 43.8 µM | > 100 µM | – | – | – | – | – | – | – | – | – | – | –
6 | O=C(/C=C/c1cccc(O)c1)c1cccc(-n2cc(-c3ccc4ccccc4c3)[nH]c2=O)c1 | 3.13 µM | – | 1.45 µM | 3.07 µM | 5.24 µM | 3.19 µM | 3.07 µM | 7.97 µM | 3.56 µM | 2.28 µM | 1.74 µM | – | 0.407 µM | 1.49 µM | 1.27 µM | 1.67 µM | 1.41 µM | 2.31 µM | 1.44 µM | 1.09 µM
7 | COc1ccc2[nH]c(-c3ccc(O)cc3)cc(=O)c2c1 | > 58.1 µM | – | 10.4 µM | 82.1 µM | 79.4 µM | 9.35 µM | 5.16 µM | – | 54.2 µM | 9.29 µM | – | – | – | – | – | – | – | – | – | –
8 | CSc1ccc(N(C)c2nc(C)nc3c2CCC3)cc1 | 50 µM | > 100 µM | – | – | 25.4 µM | 19 µM | > 100 µM | 38.8 µM | > 100 µM | > 100 µM | < 0.01 µM | < 0.01 µM | – | – | < 0.01 µM | < 0.01 µM | < 0.01 µM | < 0.01 µM | < 0.01 µM | < 0.01 µM
9 | CCOC(=O)N1CCN(CCCCCOc2ccccc2C2CCCCC2)CC1 | 3.78 µM | 12.8 µM | 9.65 µM | 11 µM | 13 µM | 17.7 µM | – | – | 22.2 µM | 19 µM | 1.86 µM | 3.23 µM | 2.16 µM | 2.98 µM | 2.92 µM | 5 µM | – | – | 6.34 µM | 5.05 µM
10 | O=C1C2=C(CCC2)Nc2cccc3ncn1c23 | > 100 µM | – | > 100 µM | – | > 100 µM | > 100 µM | > 100 µM | > 100 µM | > 100 µM | > 100 µM | – | – | – | – | – | – | – | – | – | –
11 | N#C/C(=C1\SC(N=Nc2ccc(Cl)cc2)C(=O)N1c1ccccc1)c1nc2ccccc2[nH]1 (configuration not stated) | 26.8 µM | > 100 µM | > 100 µM | > 100 µM | – | > 100 µM | 67.9 µM | 62 µM | > 100 µM | 44.8 µM | – | – | – | – | – | – | – | – | – | –
12 | Cc1ccccc1/C=C/C(=O)c1ccccc1 | 29.9 µM | 37.2 µM | 31 µM | 29.6 µM | 60.7 µM | 38.7 µM | – | > 10 µM | > 10 µM | 30.5 µM | – | – | – | – | – | – | – | – | – | –
13 | COc1ccc(Nc2nccc(N3CCN(c4c5ccc(Cl)cc5nc5ccc(OC)cc45)CC3)n2)cc1 | 47.2 µM | > 100 µM | > 100 µM | > 100 µM | > 100 µM | > 100 µM | 6.8 µM | – | > 100 µM | > 100 µM | 5.4 µM | 8.93 µM | 3.87 µM | 33 µM | 3.05 µM | 8.13 µM | 1.78 µM | – | 6.06 µM | 4.36 µM
14 | C=CC1=C(C)C2=NC1=CC1=NC(=CC3=C(C)C4=C(O)[C@H](C(=O)OC)C(=C5NC(=C2)[C@@H](C)[C@@H]5CCC(=O)O)C4=N3)C(CC)=C1C | > 28.2 µM | > 100 µM | > 59 µM | – | – | 13.8 µM | 9.1 µM | > 22.2 µM | > 100 µM | > 41.2 µM | – | – | – | – | – | – | – | – | – | –
15 | CCNCCNc1cc(-c2ccc(C#N)cc2)c(C#N)c2nc3ccccc3n12 | 7.46 µM | 13.5 µM | 2.94 µM | 3.79 µM | – | 5.66 µM | 4.1 µM | 10.4 µM | 11.8 µM | 5.2 µM | 2.2 µM | 3.5 µM | 1.5 µM | 1.88 µM | – | 2.47 µM | 1.74 µM | 3.2 µM | 3.13 µM | 2.34 µM
16 | CCCCCCCCCCCCCC[n+]1cccc(C(N)=O)c1 | 2.82 µM | 6.52 µM | 3.97 µM | 3.6 µM | 4.26 µM | 10.9 µM | – | 4.69 µM | 8.34 µM | 2.11 µM | 1.32 µM | 0.964 µM | 1.61 µM | 1.58 µM | 1.67 µM | 3.09 µM | – | 2.13 µM | 1.86 µM | 0.652 µM
17 | N#CC(C#N)=c1c2nsnc2c(=C(C#N)C#N)c2nsnc12 | 17.9 µM | 3.53 µM | 3.71 µM | 3.54 µM | – | 3.86 µM | 2.61 µM | 3.53 µM | – | 3.19 µM | – | – | – | – | – | – | – | – | – | –
18 | CCOC(=O)c1c(SCCN2CCOCC2)n(-c2ccccc2)c(=S)n(-c2ccccc2)c1=O | 46 µM | – | – | > 100 µM | 92.5 µM | > 100 µM | 33.9 µM | > 100 µM | > 100 µM | > 100 µM | – | – | – | – | – | – | – | – | – | –
